Laboratory results taken from article PMC12567248 (Pharmaceutics, 2025).
Read-outs that look alike come from different tables or passages of the source.

Columns and labels:
[1] = rabbits, printed as administered intravenously; cited from earlier work
[2] = Tissue distribution of syringic acid in liver and kidney; assay type: in vivo, Sprague Dawley rats; details: for Cmax / Tmax / half-life: Sprague Dawley, rat; for AUC0–72 / AUC0–∞: 100 mg kg^−1 syringic acid or equivalent amount in SYA@MIL-100(Fe)
Description: (§1) The reduction in the dosing for the intraperitoneal route is to prevent abdominal distress in the test animal post-administration.
After the blood collection from the test animals, the animals were euthanized, and the organs, such as the liver and kidneys, were taken. The organs were pat-dried and weighed to determine the amount of NSS to be used for homogenization (1 mL of NSS per 700 mg of organ). The organs were homogenized and mixed with equal amounts of absolute ethanol. The mixture was centrifuged at 5000 rpm for 10 min. The serum samples were supplemented with an equal amount of absolute ethanol to facilitate the precipitation of proteins. This procedure was performed until no precipitation occurred. The supernatant was allowed to dry under reduced pressure before HPLC analysis.
(§2) Samples were prepared using the mobile phase consisting of 80:20 water with 0.1% acetic acid: methanol. HPLC analysis was performed using a linear gradient elution at a flow rate of 1.0 mL min^−1. The gradient program started at 80:20 (water with 0.1% acetic acid: methanol) and linearly progressed to 40:60 over 10 min. The column oven temperature was maintained at 30 °C. Detection was carried out using a PDA detector set at 218 nm.

[3] = cited from earlier work
[4] = Oral and intraperitoneal bioavailability, syringic acid in blood; assay type: in vivo, Sprague Dawley rats; details: Sprague Dawley, rat, serum; for AUC(0-t): read-out: AUC0–72 (converted)
Description: as §1
After the given time points, the test animals were sedated using Zoletil 50 (50 mg tiletamine base, 50 mg zolazepam base, and 57.7 mg mannitol per mL) at a dose of […] before blood extraction using the cardiac puncture method. The blood was allowed to clot and centrifuged at 4000 rpm at 4 °C for 5 min to obtain the serum. The sera were mixed with an equal amount of methanol to precipitate proteins and centrifuged again to obtain the deproteinized sera. The procedure was repeated until no precipitation with methanol occurred. The protein-free sera were dried under reduced pressure for prior analysis using HPLC.
as §2

[5] = In vitro drug release study, sample and separation method, with release model fitting; assay type: physicochemical; details: 37.5 °C
Description: The release media used were ultrapure water, 0.1 N phosphate-buffered saline (PBS) pH 7.4 for simulated blood pH, PBS pH 6.8 for simulated intestinal fluid, and 0.1 N HCl pH 2.0 for simulated gastric fluid. […] The setup was stirred at 75 rpm at 37.5 ± 0.5 °C. […] A fresh amount of the media was used to compensate for the amount of the release media taken at every time point. The aliquots were centrifuged at 5000 rpm for 10 min. The supernatant liquid was stored for syringic acid quantification using HPLC analysis, while the pellets were returned to the setup. The cumulative amount of syringic acid released from the MIL-100(Fe) was utilized to predict and correlate the behavior of the in vitro release. The experimental data were fitted to five predictable models: zero-order, first-order, Higuchi, Korsmeyer–Peppas, and Hixson–Crowell models. Data fitting was performed by linear regression using Microsoft Excel. The correlation coefficient (r^2) was utilized as a criterion for selecting the best model that describes the release profile in the three media. An r^2 value close to 1 signifies the best correlation.

Male Sprague Dawley Rats = assay: Acute oral toxicity, OECD procedure 423; details: rat, in vivo
Description: Acute oral toxicity was analyzed in accordance with the OECD guidelines for testing chemical compounds using the acute toxic class method (OECD procedure 423). Prior to dosing, 1 mL of the blood was extracted from the test animals (Male Sprague Dawley Rats, 200–250 g) using the tail vein method and was submitted for alanine aminotransferase (ALT), aspartate aminotransferase (AST), and blood urea nitrogen (BUN), and creatinine level determinations for signs of liver and kidney damages, respectively. […] Since no test animals were recorded to show any signs of toxicity or death, an additional three test animals were given the same dose. […] After the 14 days of observation, the test animals were sedated using Zoletil 50 (50 mg tiletamine base, 50 mg zolazepam base, and 57.7 mg mannitol per mL) at a dose of 50 mg kg^−1 prior to blood extraction using the cardiac puncture method. The animals were euthanized using a carbon dioxide chamber. The blood samples were analyzed for liver and kidney functions. The major organs, such as the liver and kidneys of the test animals, were harvested for tissue mounting and histopathological analysis.

For COc1cc(C(=O)O)cc(OC)c1O [Syringic Acid, 3,5-Dimethoxy-4-hydroxybenzoic acid], the absolute bioavailability [1] is given as 86.27%, the Cmax ([2]; 100 mg kg^−1, kidney, oral, read-out: maximum concentration (Cmax)) is given as 105000 ± 9790 ng/g and the Cmax ([2]; 100 mg kg^−1, liver, oral) is given as 163000 ng/g. It also gave a Cmax ([2]; ip, 25 mg kg^−1, kidney, intraperitoneal, read-out: Cmax) of 218000 ± 8730 ng/g, a Cmax ([2]; ip, 25 mg kg^−1, liver, intraperitoneal, read-out: Cmax) of 40100 ± 560 ng/g and a Tmax ([2]; kidney, ip, 25 mg kg^−1) of 0.402 h. For the same compound, the half-life ([2]; kidney, ip, 25 mg kg^−1) was 80.1 ± 54.5 h, the Tmax ([2]; kidney, po, 100 mg/kg) was 0.47 h and the half-life ([2]; kidney, po, 100 mg/kg) was 0.626 ± 0.0782 h. It also gave a Cmax ([2]; kidney, po, 100 mg/kg, read-out: Cmax) of 105000 ± 9790 ng/g, a Tmax ([2]; liver, ip, 25 mg kg^−1) of 0.412 h and a half-life ([2]; liver, ip, 25 mg kg^−1) of 30.9 ± 18.4 h. The Tmax ([2]; liver, po, 100 mg/kg) was 8.6 h, the half-life ([2]; liver, po, 100 mg/kg) was 38.1 ± 13.5 h and the Cmax ([2]; liver, po, 100 mg/kg, read-out: Cmax) was 16300 ± 3540 ng/g. The “AUC0–72” value ([2]; kidney, oral) was 77,103.33 ± 2531.03 μg min g^−1, the “AUC0–∞” value ([2]; kidney, oral) was 78,035.27 ± 2458.81 μg min g^−1 and the “AUC0–72” value ([2]; liver, oral) was 32,000.33 ± 3544.16 μg min g^−1. The “AUC0–∞” value ([2]; liver, oral) was 47,401.91 ± 8515.77 μg min g^−1, the Cmax [3] was 4500 ± 40 ng/mL and the Tmax [3] was 8 min. For the same compound, the area under the curve [3] was 2010 ± 48.7 ng·h/mL, the Tmax ([4]; ip, 25 mg kg^−1) was 0.933 h and the half-life ([4]; ip, 25 mg kg^−1) was 16.7 ± 6.83 h. The AUC(0-t) ([4]; ip, 25 mg kg^−1) was 72800 ng·h/mL, the half-life ([4]; po, 100 mg/kg) was 1.98 ± 0.513 h and the AUC(0-t) ([4]; po, 100 mg/kg) was 23600 ng·h/mL. For the same compound, the “cumulative release of syringic acid” value ([5]; 0.1 N HCl, after 30 h) was 110.99%, the “cumulative release of syringic acid” value ([5]; PBS pH 6.8, after 30 h) was 110.93% and the “cumulative release of syringic acid” value ([5]; PBS pH 7.4, after 30 h) was 117.55%. For the same compound, the “cumulative release of syringic acid” value ([5]; water, after 30 h) was 94.67%, the BUN before administration (Male Sprague Dawley Rats) was 14.71 ± 0.51 mg per dL and the SGOT before administration (Male Sprague Dawley Rats) was 337.30 ± 34.87 units per liter. For the same compound, the SGPT before administration (Male Sprague Dawley Rats) was 87.96 ± 14.9 units per liter and the “serum creatinine before administration” value (Male Sprague Dawley Rats) was 0.58 ± 0.01 mg per dL.
